In assay [1] the test system is Chenopodium spp., Papaver spp., Polygonum spp., Veronica spp. or Viola spp. The experiment in a line: Post-emergence effect on weeds (greenhouse pot test, visual scoring). It is filed as in vivo, monocotyledonous and dicotyledonous weeds. To be noted: treated at three-leaf stage; visual scoring after about 3 to 4 weeks; application rate of 0.5 kg and less of active substance per hectare.

Assay [2] deals with Cyperus spp., Echinochloa spp., Digitaria spp., Sagitaria spp. and Scirpus spp. The experiment in a line: Action on harmful plants in rice (paddy rice conditions, visual scoring). It is filed as in vivo, typical rice weeds (gramineous and broad-leaved). To be noted: applied into the dammed water, visual scoring about three weeks after application. The gist of the method: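 Rice and typical gramineous and broad-leaved rice weeds grown in closed pots in greenhouse under paddy conditions (2-3 cm water) to three-leaf stage (Echinochloa crus-galli 1.5-leaf), then treated with compounds. Plants kept under optimum greenhouse conditions throughout; effect scored visually.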

For the compound `C#Cc1ccc(CNc2nc(C)nc(N)n2)cc1` [Product P1.1580], in assay [1], the “herbicidal activity post-emergence against harmful plants” value (shortened to “herbicidal activity post-emergence”) is given as “very good herbicidal activity”. Moreover, in assay [2], the “herbicidal activity against harmful plants which are typical for rice crops” value (from here on “herbicidal activity … for rice crops”) was “very good herbicidal activity”.

Take `CC#Cc1c(F)cc(C(C)Nc2nc(N)nc(C(C)F)n2)cc1F` (stereo not drawn) [Product P22.428]: in assay [1], the “herbicidal activity post-emergence” value is on record as “very good herbicidal activity”. Moreover, the “herbicidal activity … for rice crops” value in assay [2] is “very good herbicidal activity”.

As for `C#Cc1ccc(C(Nc2nc(N)nc(C(C)(C)F)n2)C2CC2)cc1` (stereo not drawn) [Product P19.1580], the “herbicidal activity post-emergence” value in assay [1] is listed as “very good herbicidal activity”. In addition, the “herbicidal activity … for rice crops” value in assay [2] is “very good herbicidal activity”.

Consider `CC#Cc1ccc(C(C)Nc2nc(N)nc(C(C)F)n2)cc1` (stereo not drawn) [Product P22.1583], for which, in assay [1], the “herbicidal activity post-emergence” value is reported as “very good herbicidal activity”. Also, the “herbicidal activity … for rice crops” value in assay [2] was “very good herbicidal activity”.

Take `C#Cc1ccc(C(C)Nc2nc(N)nc(C(F)CC)n2)cc1` (stereo not drawn) [Product P27.1580]: the “herbicidal activity post-emergence” value in assay [1] was “very good herbicidal activity”. Also, in assay [2], the “herbicidal activity … for rice crops” value was “very good herbicidal activity”.

As for `CC#Cc1c(F)cc(C(C)Nc2nc(N)nc(C(C)(C)F)n2)cc1F` (stereo not drawn) [Product P17.428], the “herbicidal activity post-emergence” value in assay [1] is “very good herbicidal activity”. For the same compound, the “herbicidal activity … for rice crops” value in assay [2] is on record as “very good herbicidal activity”.

With `CC(Nc1nc(N)nc(C(C)(C)F)n1)c1cccc(C(F)=C(F)F)c1` (stereo not drawn) [Product P17.1567], in assay [1], the “herbicidal activity post-emergence” value is “very good herbicidal activity”. Moreover, in assay [2], the “herbicidal activity … for rice crops” value is “very good herbicidal activity”.

As for `CC#Cc1cc(C(C)Nc2nc(N)nc(C(F)CC)n2)ccc1F` (stereo not drawn) [Product P27.384], the “herbicidal activity post-emergence” value in assay [1] is recorded as “very good herbicidal activity”. Also, the “herbicidal activity … for rice crops” value in assay [2] is “very good herbicidal activity”.

On to `CC#Cc1c(F)cc(C(C)Nc2nc(N)nc(C(F)CC)n2)cc1F` (stereo not drawn) [Product P27.428], for which the “herbicidal activity post-emergence” value in assay [1] is recorded as “very good herbicidal activity”. Moreover, in assay [2], the “herbicidal activity … for rice crops” value is recorded as “very good herbicidal activity”.

With `C#Cc1cc(C(C)Nc2nc(N)nc(CC)n2)ccc1F` (stereo not drawn) [Product P7.309], the “herbicidal activity post-emergence” value in assay [1] is on record as “very good herbicidal activity”. In addition, the “herbicidal activity … for rice crops” value in assay [2] is listed as “very good herbicidal activity”.

On to `CCC(F)c1nc(N)nc(NC(c2ccc(C(F)=C(F)F)cc2)C2CC2)n1` (stereo not drawn) [Product P29.1568], for which the “herbicidal activity post-emergence” value in assay [1] is “very good herbicidal activity”. The “herbicidal activity … for rice crops” value in assay [2] is reported as “very good herbicidal activity”.

Take `C#Cc1c(F)cc(C(C)Nc2nc(N)nc(C(C)F)n2)cc1F` (stereo not drawn) [Product P22.352]: in assay [1], the “herbicidal activity post-emergence” value is reported as “very good herbicidal activity”. Moreover, in assay [2], the “herbicidal activity … for rice crops” value is reported as “very good herbicidal activity”.

As to `CC(C)c1nc(N)nc(NC(C)c2cccc(C3CC3)c2)n1` (stereo not drawn) [Product P12.1603], the “herbicidal activity post-emergence” value in assay [1] is “very good herbicidal activity”. Also, the “herbicidal activity … for rice crops” value in assay [2] is listed as “very good herbicidal activity”.

For the compound `Cc1nc(N)nc(NCc2ccc(C(F)=C(F)F)cc2)n1` [Product P1.1568], the “herbicidal activity post-emergence” value in assay [1] was “very good herbicidal activity”. The “herbicidal activity … for rice crops” value in assay [2] is reported as “very good herbicidal activity”.

Regarding `Cc1nc(N)nc(NCc2ccc(C3CC3)cc2)n1` [Product P1.1604], in assay [1], the “herbicidal activity post-emergence” value was “very good herbicidal activity”. Also, the “herbicidal activity … for rice crops” value in assay [2] is “very good herbicidal activity”.

Turning to `CC#Cc1ccc(C(Nc2nc(N)nc(C(C)F)n2)C2CC2)cc1` (stereo not drawn) [Product P24.1583], in assay [1], the “herbicidal activity post-emergence” value was “very good herbicidal activity”. Also, in assay [2], the “herbicidal activity … for rice crops” value is “very good herbicidal activity”.

Consider `CC(C)(F)c1nc(N)nc(NCc2ccc(C3CC3)cc2)n1` [Product P16.1604], for which, in assay [1], the “herbicidal activity post-emergence” value was “very good herbicidal activity”. Moreover, the “herbicidal activity … for rice crops” value in assay [2] is “very good herbicidal activity”.

Regarding `CC#Cc1ccc(CNc2nc(N)nc(C(C)(C)F)n2)cc1` [Product P16.1583], the “herbicidal activity post-emergence” value in assay [1] was “very good herbicidal activity”. In addition, the “herbicidal activity … for rice crops” value in assay [2] is reported as “very good herbicidal activity”.

As for `CC#Cc1ccc(CNc2nc(N)nc(C(C)C)n2)cc1` [Product P11.1583], in assay [1], the “herbicidal activity post-emergence” value is “very good herbicidal activity”. Besides, the “herbicidal activity … for rice crops” value in assay [2] was “very good herbicidal activity”.

As for `CCc1nc(N)nc(NC(c2ccc(C(F)=C(F)F)cc2)C2CC2)n1` (stereo not drawn) [Product P9.1568], the “herbicidal activity post-emergence” value in assay [1] is “very good herbicidal activity”. Moreover, the “herbicidal activity … for rice crops” value in assay [2] is “very good herbicidal activity”.

Turning to `C#Cc1ccc(C(Nc2nc(N)nc(C(F)CC)n2)C2CC2)cc1` (stereo not drawn) [Product P29.1580], the “herbicidal activity post-emergence” value in assay [1] was “very good herbicidal activity”. The “herbicidal activity … for rice crops” value in assay [2] is recorded as “very good herbicidal activity”.

Consider `CC(F)c1nc(N)nc(NCc2cccc(C(F)=C(F)F)c2)n1` (stereo not drawn) [Product P21.1567], for which the “herbicidal activity post-emergence” value in assay [1] is given as “very good herbicidal activity”. In addition, the “herbicidal activity … for rice crops” value in assay [2] is recorded as “very good herbicidal activity”.

`Cc1nc(N)nc(NC(c2cccc(C3CC3)c2)C2CC2)n1` (stereo not drawn) [Product P4.1603]: the “herbicidal activity post-emergence” value in assay [1] was “very good herbicidal activity”. The “herbicidal activity … for rice crops” value in assay [2] is listed as “very good herbicidal activity”.

On to `C#Cc1ccc(CNc2nc(N)nc(C(C)F)n2)cc1` (stereo not drawn) [Product P21.1580], for which the “herbicidal activity post-emergence” value in assay [1] is on record as “very good herbicidal activity”. Moreover, the “herbicidal activity … for rice crops” value in assay [2] is “very good herbicidal activity”.

For `CCC(F)c1nc(N)nc(NC(C)c2cccc(C#CC(C)O)c2)n1` (stereo not drawn) [Product P27.1600], the “herbicidal activity post-emergence” value in assay [1] is “very good herbicidal activity”. For the same compound, in assay [2], the “herbicidal activity … for rice crops” value was “very good herbicidal activity”.

For `CC#Cc1cc(CNc2nc(N)nc(C(C)(C)F)n2)ccc1F` [Product P16.384], the “herbicidal activity post-emergence” value in assay [1] is on record as “very good herbicidal activity”. For the same compound, in assay [2], the “herbicidal activity … for rice crops” value is “very good herbicidal activity”.

On to `CC(C)c1nc(N)nc(NC(C)c2cc(F)c(C(F)=C(F)F)c(F)c2)n1` (stereo not drawn) [Product P12.49], for which the “herbicidal activity post-emergence” value in assay [1] was “very good herbicidal activity”. Also, in assay [2], the “herbicidal activity … for rice crops” value is “very good herbicidal activity”.

On to `CC#Cc1cc(C(C)Nc2nc(N)nc(C(C)F)n2)ccc1F` (stereo not drawn) [Product P22.384], for which, in assay [1], the “herbicidal activity post-emergence” value was “very good herbicidal activity”. Further, the “herbicidal activity … for rice crops” value in assay [2] is given as “very good herbicidal activity”.

`CC(C)c1nc(N)nc(NC(c2cccc(C3CC3)c2)C2CC2)n1` (stereo not drawn) [Product P14.1603]: the “herbicidal activity post-emergence” value in assay [1] was “very good herbicidal activity”. Also, the “herbicidal activity … for rice crops” value in assay [2] is reported as “very good herbicidal activity”.

On to `CCC(F)c1nc(N)nc(NCc2ccc(F)c(C(F)=C(F)F)c2)n1` (stereo not drawn) [Product P26.5], for which the “herbicidal activity post-emergence” value in assay [1] was “very good herbicidal activity”. Further, the “herbicidal activity … for rice crops” value in assay [2] was “very good herbicidal activity”.

Take `C#Cc1c(F)cc(CNc2nc(N)nc(C(C)F)n2)cc1F` (stereo not drawn) [Product P21.352]: the “herbicidal activity post-emergence” value in assay [1] is given as “very good herbicidal activity”. The “herbicidal activity … for rice crops” value in assay [2] is “very good herbicidal activity”.

On to `C#Cc1c(F)cc(C(Nc2nc(N)nc(C(C)C)n2)C2CC2)cc1F` (stereo not drawn) [Product P14.352], for which the “herbicidal activity post-emergence” value in assay [1] is given as “very good herbicidal activity”. Moreover, the “herbicidal activity … for rice crops” value in assay [2] was “very good herbicidal activity”.

For `CCCCC#Cc1ccc(C(C)Nc2nc(N)nc(C(C)F)n2)cc1` (stereo not drawn) [Product P22.1595], in assay [1], the “herbicidal activity post-emergence” value is given as “very good herbicidal activity”. Also, the “herbicidal activity … for rice crops” value in assay [2] is on record as “very good herbicidal activity”.

As to `CCc1nc(N)nc(NC(c2cccc(C3CC3)c2)C2CC2)n1` (stereo not drawn) [Product P9.1603], the “herbicidal activity post-emergence” value in assay [1] was “very good herbicidal activity”. Also, the “herbicidal activity … for rice crops” value in assay [2] is listed as “very good herbicidal activity”.

For `CC#Cc1c(F)cc(C(Nc2nc(N)nc(C(C)(C)F)n2)C2CC2)cc1F` (stereo not drawn) [Product P19.428], in assay [1], the “herbicidal activity post-emergence” value is recorded as “very good herbicidal activity”. Further, the “herbicidal activity … for rice crops” value in assay [2] is given as “very good herbicidal activity”.

Consider `CC(O)C#Cc1cc(C(C)Nc2nc(N)nc(C(C)(C)F)n2)ccc1F` (stereo not drawn) [Product P17.840], for which, in assay [1], the “herbicidal activity post-emergence” value is “very good herbicidal activity”. Moreover, the “herbicidal activity … for rice crops” value in assay [2] was “very good herbicidal activity”.
